This is an account of results in ChEMBL document CHEMBL5042542, “Discovery of Non-Nucleotide Small-Molecule STING Agonists via Chemotype Hybridization” (J Med Chem, 2022).

The nature of series [1]: in vitro. Conditions: mouse, liver microsomes.
Series [2] in a line: in vitro. The settings on record: human, liver microsomes. In general terms: Liver microsomes are a subcellular fraction often used to study metabolism.
Series [3] is described as follows: in vitro. The settings on record: rat, liver microsomes.

Bounds are passed on as bounds.

Usually fraction remaining stands for what is left of the initial amount, in per cent. A high value points to greater stability. Regarding `CCn1nc(C)cc1C(=O)Nc1nc2cc(C(N)=O)cc(OC)c2n1C/C=C/Cn1c(NC(=O)c2cc(C)nn2CC)nc2cc(C(N)=O)cc(OCCCN3CCOCC3)c21`, the amount remaining at 10 min, 0.5 µM in series [1] was > 100%; in series [2] it was 22%; in series [3], 81%.

For `O=C(O)c1ccc2cc(CNC(=O)c3cnn4cccnc34)oc2c1`, the fraction remaining at 10 min, 0.5 µM in series [1], in series [2] and in series [3] was 100% throughout.

For `O=C(O)c1cccc2cc(Cn3ccc4ccncc4c3=O)oc12`, the fraction remaining at 10 min, 0.5 µM in series [1] worked out at 96%; in series [2], 98%; in series [3], 100%.

`O=C(NCc1cc2cc(Cl)c3oc(=O)[nH]c(=O)c3c2o1)c1cnn2cccnc12`: the results for the fraction remaining at 10 min, 0.5 µM in series [1], in series [2] and in series [3] were 57%, 54% and 69%, respectively.

As for `O=C(O)c1c(O)c(Cl)cc2cc(CNC(=O)c3cnn4cccnc34)oc12`, the figures for the share remaining at 10 min, 0.5 µM in series [1], in series [2] and in series [3] were 93%, 98% and 88%, respectively.

On to `O=C(O)c1ccc2oc(CNC(=O)c3cnn4cccnc34)cc2c1`, for which the amount remaining at 10 min, 0.5 µM in series [1] came out at 88%; in series [2] it was 100%; in series [3] it was 100%.

Consider `O=C(O)c1c(F)ccc2cc(CNC(=O)c3cnn4cccnc34)oc12`, for which the share remaining at 10 min, 0.5 µM in series [1] turned out to be 92%; in series [2], 98%; in series [3] it was 91%.

In the case of `O=C(O)c1cc(Cl)cc2cc(CNC(=O)c3cnn4cccnc34)oc12`, the amount remaining at 10 min, 0.5 µM in series [1], in series [2] and in series [3] was 100% each time.

For the compound `O=C(NCc1cc2cc(Cl)cc(-c3nn[nH]n3)c2o1)c1cnn2cccnc12`, the values for the share remaining at 10 min, 0.5 µM in series [1], in series [2] and in series [3] were 80%, 96% and 89%, respectively.

Consider `O=C(O)c1cccc2c(Cl)c(CNC(=O)c3cnn4cccnc34)oc12`, for which the fraction remaining at 10 min, 0.5 µM turned out to be 85% in series [1], 99% in series [2] and 91% in series [3].

Regarding `COC(=O)c1cccc2cc(CN3Cc4ccncc4C3=O)oc12`, the results for the fraction remaining at 10 min, 0.5 µM in series [1], in series [2] and in series [3] were 11%, 0% and 7%, respectively.

As to `O=C(O)c1cccc2cc(CNC(=O)c3cnn4cccnc34)oc12`, the share remaining at 10 min, 0.5 µM in series [1] was determined as 97%; in series [2], 94%; in series [3] it was 96%.

As for `O=C(NCc1cc2cc(Cl)cc(C(=O)O)c2o1)c1cncc2cccnc12`, the figures for the amount remaining at 10 min, 0.5 µM in series [1], in series [2] and in series [3] were 65%, 92% and 64%, respectively.

With `Cn1c(CNC(=O)c2cnn3cccnc23)nc2c(C(=O)O)cccc21`, the share remaining at 10 min, 0.5 µM worked out at 85% in series [1], 95% in series [2] and 89% in series [3].

As for `C[C@H](NC(=O)c1cnn2cccnc12)c1cc2cc(Cl)cc(C(=O)O)c2o1`, the amount remaining at 10 min, 0.5 µM worked out at 100% in series [1], 100% in series [2] and 94% in series [3].

In the case of `Cc1ccc2c(=O)c3cccc(CC(=O)O)c3oc2c1C` [VADIMEZAN], the fraction remaining at 10 min, 0.5 µM is 89% in series [1], 100% in series [2] and 100% in series [3].
